{"source": "patent US20120151636A1", "about": "“Peptides for Stimulating Plant Disease Resistance” (The Regents of the University of California, priority 2009, published 2012)", "key": {"[1]": {"molecular_target": "OsFLS2 (Oryza sativa subsp. japonica, UniProt Q0JA29)", "sequence (Q0JA29 42-1183)": "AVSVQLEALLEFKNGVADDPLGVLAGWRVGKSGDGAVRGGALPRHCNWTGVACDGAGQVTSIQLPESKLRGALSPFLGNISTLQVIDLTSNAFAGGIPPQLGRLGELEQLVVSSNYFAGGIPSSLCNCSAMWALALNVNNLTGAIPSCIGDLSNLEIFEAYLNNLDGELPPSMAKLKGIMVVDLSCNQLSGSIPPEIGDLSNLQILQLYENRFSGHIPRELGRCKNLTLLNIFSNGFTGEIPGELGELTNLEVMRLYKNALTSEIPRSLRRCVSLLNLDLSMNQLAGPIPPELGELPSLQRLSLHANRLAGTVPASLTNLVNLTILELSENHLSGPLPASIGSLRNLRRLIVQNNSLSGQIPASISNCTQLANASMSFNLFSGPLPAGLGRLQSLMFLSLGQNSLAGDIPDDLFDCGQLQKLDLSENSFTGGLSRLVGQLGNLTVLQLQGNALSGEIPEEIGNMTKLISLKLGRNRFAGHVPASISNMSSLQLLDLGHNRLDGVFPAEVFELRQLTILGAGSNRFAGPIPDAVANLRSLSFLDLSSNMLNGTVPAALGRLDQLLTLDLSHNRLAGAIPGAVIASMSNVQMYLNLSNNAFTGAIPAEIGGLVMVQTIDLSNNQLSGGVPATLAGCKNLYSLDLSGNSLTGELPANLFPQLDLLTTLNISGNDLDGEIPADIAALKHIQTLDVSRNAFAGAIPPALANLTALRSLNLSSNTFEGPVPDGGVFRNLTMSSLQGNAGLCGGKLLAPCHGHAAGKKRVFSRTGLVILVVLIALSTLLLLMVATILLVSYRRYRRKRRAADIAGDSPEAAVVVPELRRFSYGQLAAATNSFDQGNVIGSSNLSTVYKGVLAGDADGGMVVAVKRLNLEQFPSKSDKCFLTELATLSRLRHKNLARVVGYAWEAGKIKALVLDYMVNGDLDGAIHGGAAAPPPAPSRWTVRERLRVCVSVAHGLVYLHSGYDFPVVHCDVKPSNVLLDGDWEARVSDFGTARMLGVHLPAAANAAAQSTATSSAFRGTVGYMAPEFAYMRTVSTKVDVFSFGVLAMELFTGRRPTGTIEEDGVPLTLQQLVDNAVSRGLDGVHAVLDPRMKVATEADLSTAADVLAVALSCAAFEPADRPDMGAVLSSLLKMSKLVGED", "settings": "in rice; cited from earlier work"}, "[2]": {"molecular_target": "T1, Myc-XA21 (Oryza sativa subsp. indica, UniProt Q1MX30)", "T1 construct": "expressed in transfected cells; host or cells: leaf extract of a Kitaake (Oryza sativa ssp. japonica) transgenic rice line carrying Myc-XA21", "T1 sequence (Q1MX30 24-1025)": "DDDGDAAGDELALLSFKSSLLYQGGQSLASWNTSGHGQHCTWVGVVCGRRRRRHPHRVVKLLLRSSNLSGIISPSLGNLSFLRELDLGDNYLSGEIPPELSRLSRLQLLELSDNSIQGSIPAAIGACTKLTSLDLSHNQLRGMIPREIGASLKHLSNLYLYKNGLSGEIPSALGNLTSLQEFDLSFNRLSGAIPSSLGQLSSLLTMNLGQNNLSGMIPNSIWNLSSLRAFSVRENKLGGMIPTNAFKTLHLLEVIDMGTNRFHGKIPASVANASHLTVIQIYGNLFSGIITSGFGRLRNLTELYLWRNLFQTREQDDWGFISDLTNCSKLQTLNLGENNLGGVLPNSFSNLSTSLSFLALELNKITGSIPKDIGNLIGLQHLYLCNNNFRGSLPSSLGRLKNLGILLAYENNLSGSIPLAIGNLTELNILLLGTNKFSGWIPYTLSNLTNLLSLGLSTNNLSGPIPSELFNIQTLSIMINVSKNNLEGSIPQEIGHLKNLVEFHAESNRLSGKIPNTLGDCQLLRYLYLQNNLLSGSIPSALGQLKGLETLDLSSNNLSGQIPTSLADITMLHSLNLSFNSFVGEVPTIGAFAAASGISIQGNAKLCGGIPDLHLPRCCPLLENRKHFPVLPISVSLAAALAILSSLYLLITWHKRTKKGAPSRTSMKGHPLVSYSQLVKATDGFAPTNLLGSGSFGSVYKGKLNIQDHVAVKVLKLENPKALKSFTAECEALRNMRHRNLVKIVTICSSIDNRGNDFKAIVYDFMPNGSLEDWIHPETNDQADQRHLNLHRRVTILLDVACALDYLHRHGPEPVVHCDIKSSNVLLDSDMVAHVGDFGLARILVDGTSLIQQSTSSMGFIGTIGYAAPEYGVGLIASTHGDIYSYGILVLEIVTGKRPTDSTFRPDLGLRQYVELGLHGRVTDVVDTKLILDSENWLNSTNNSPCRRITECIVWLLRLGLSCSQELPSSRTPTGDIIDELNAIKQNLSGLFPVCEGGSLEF", "test": "Ax21/XA21 binding assay (cross-linking and co-immunoprecipitation)", "set-up": "species or system rice", "settings": "5- to 10-fold excess competitor over HA-tagged AxY^S22; Myc-XA21 leaf extracts", "procedure": "Binding of the C terminal HA tagged AxY^S22 (AxY^S22-HA) to N-terminal tagged Myc XA21 (Myc-XA21) complex was carried out using cross-linked analysis according to methods described previously (C. Zipfel et al., Cell 125, 749 (2006); Z. Bauer, L. Gomez-Gomez, T. Boller, G. Felix, J Biol Chem 276, 45669 (2001); D. Chinchilla, Z. Bauer, M. Regenass, T. Boller, G. Felix, Plant Cell 18, 465 (2006)). Fully expanded rice leaves were harvested from five-week old Myc-XA21 transgenic and Kitaake control plants. Total proteins were extracted from five g of leaf tissue in 10 ml of ice-cold extraction buffer [0.15 M NaCl, 0.01 M Na-phosphate pH 7.2, 2 mM EDTA, 0.1% Triton X-100, 10 mM β-mercaptoethanol, 20 mM NaF, 1 mM PMSF, 1% Protease cocktail (Sigma), 2 μg/ml leupeptin, 2 μg/ml antipain, and 2 μg/ml aprotinin] […] Duplicate protein gel blots were analyzed with anti-Myc and anti-HA antibodies, respectively."}, "[3]": {"molecular_target": "XA21 (in leaves of the TP309-XA21 transgenic rice line 106-17-3-37) (rice) (UniProt Q1MX30)", "test": "cell-based or functional assay"}, "[4]": {"tested_on": "TP309-XA21 rice leaves", "set-up": "species or system Oryza sativa ssp. japonica", "settings": "in vivo"}, "[5]": {"tested_on": "PXO99ΔraxST", "set-up": "species or system Xanthomonas oryzae pv. oryzae", "settings": "in vivo"}}, "note": "“Also recorded” adds a separate entry of the source."}
{"substance": "QRLSSGLRINSAKDDAAGLAIS (Acidovorax avenae flg22; listed as Acidovorax avenae) [flg22ave, flg22 from the rice pathogen Acidovorax avenae, reference compound]", "values": [{"measurement": "concentration that can induce OsFLS2-mediated response", "setting": "[1]", "result": 0.5, "unit": "µM"}, {"measurement": "effect of competitor on labeling of the 140 kDa band (AxY^S22/XA21 binding)", "setting": "[2]", "result": "no effect on AxY^S22/XA21 binding"}]}
{"substance": "AxY^S22 peptide (no HA tag)", "values": [{"measurement": "concentration sufficient for PAMP activity (lesion length in TP309-XA21 rice)", "setting": "[3]", "result": 1, "unit": "µM"}, {"measurement": "reduction in PXO99ΔraxST population growth (growth curve analysis)", "setting": "[3]", "result": 1000, "unit": "fold"}]}
{"substance": "AENLS(sulfated Y)NFVEGDYVRTP [axY^S22]", "values": [{"measurement": "activation of XA21-mediated immunity (lesion length)", "setting": "[4]", "result": "activated XA21-mediated immunity; also recorded: sufficient to activate XA21 mediated immunity"}, {"measurement": "concentration sufficient for PAMP activity", "setting": "[4]", "result": 1, "unit": "µM"}, {"measurement": "effect of competitor on labeling of the 140 kDa band (AxY^S22/XA21 binding)", "setting": "[2]", "result": "suppressed the labeling of this band"}, {"measurement": "reduction in PXO99ΔraxST population growth", "setting": "[5]", "result": 1000, "unit": "fold"}, {"measurement": "triggering of XA21-mediated immunity (growth curve analysis)", "setting": "[5]", "result": "triggered resistance to PXO99ΔraxST; also recorded: triggers immunity in TP309-XA21 rice"}]}
{"substance": "AENLSYNFVEGDYVRTP [axY22]", "values": [{"measurement": "triggering of XA21-mediated immunity (growth curve analysis)", "setting": "[5]", "result": "unable to trigger Xa21-mediated immunity; also recorded: no detectable activity"}]}
{"substance": "Ax21: Activator of Xa21-mediated immunity; 194 aa protein encoded by PXO_03968", "values": [{"measurement": "extent of induced resistance", "setting": "[4]", "result": "robust resistance"}]}
